# US5254459A, “Nucleotide and amino acid sequences of protein MTP40 of M. tuberculosis and synthetic peptides derived therefrom” (priority 1992, dated 1993)
# No end group written: not given here.
# Test system: sera from tuberculosis patients
# Experiment: ELISA recognition of synthetic MTP40 peptides by human sera
# Type: binding
# Conditions: sera from active tuberculosis patients having B(+) sputum; peptide coated at 3 micrograms per well
sequence,measurement,value
"WLKLGLVEFGGVAKLNAEVMS [S698, synthetic peptide derived from M. tuberculosis MTP40 protein]",percentage of sera recognizing the peptide (ELISA),20.8%
